Our source for the Ki values is US8541581B2, “Inhibitors of fatty acid amide hydrolase” (Infinity Pharmaceuticals, Inc., priority 2009, dated 2013).

The target in the experiment is T1, human FAAH (Homo sapiens, UniProt O00519).
T1 construct: host or cells: COS-7 cells, transient transfection; 13,000 g membrane fraction solubilized in 1% Triton X-100
T1 sequence (O00519 1-579): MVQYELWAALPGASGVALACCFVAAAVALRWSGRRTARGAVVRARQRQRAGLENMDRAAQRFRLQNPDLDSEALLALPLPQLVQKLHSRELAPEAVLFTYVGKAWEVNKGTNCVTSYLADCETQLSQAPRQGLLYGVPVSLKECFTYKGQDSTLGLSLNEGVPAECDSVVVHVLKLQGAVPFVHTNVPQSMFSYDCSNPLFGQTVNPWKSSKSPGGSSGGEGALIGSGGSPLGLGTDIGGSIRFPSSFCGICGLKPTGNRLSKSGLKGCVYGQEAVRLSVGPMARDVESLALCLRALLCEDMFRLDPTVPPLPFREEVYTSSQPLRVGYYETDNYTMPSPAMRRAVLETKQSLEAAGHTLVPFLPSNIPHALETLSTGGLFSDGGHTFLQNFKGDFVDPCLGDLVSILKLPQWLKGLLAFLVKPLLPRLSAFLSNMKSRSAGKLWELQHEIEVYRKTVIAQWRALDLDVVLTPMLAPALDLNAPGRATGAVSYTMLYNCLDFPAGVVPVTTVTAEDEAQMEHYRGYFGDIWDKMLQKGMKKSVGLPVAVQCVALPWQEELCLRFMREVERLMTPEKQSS
The experiment in a line: Human FAAH fluorescence-based inhibition assay (AMC Arachidonoyl Amide hydrolysis). The experiment is classed as biochemical. As to conditions: human FAAH from transfected COS-7 cells; 20 μM AMC-Arachidonoyl substrate; 30 min preincubation, 4 hours at room temperature. The protocol:
Exemplary compounds are set forth in the Examples provided below. Compounds were assayed as inhibitors of human FAAH using the method described in detail in Example 19.
The following assays can be used to determine the inhibition of FAAH: (1) a fluorescence-based assay (Manjunath et al., Analytical Biochemistry (2005) 343:143-151); and (2) a microsome-based fluorescent assay (Wang et al., Biomolecular Screening (2006) 1-9).
COS-7 cells were split the day before, 1:5 into 150 mm×25 mm cell culture dishes (Corning Inc., Cat. No. 430599). Transient transfection took place at 30-40% confluency according to FuGENE 6 Transfection Reagent (Roche, Cat. No. 11814 443 001).
The FuGENE transfection 6 reagent (45 uL) was added to 1410 μL of media (DMEM, serum free without pen/strep) in a 15 mL conical tube and incubated at room temp for 5 minutes, followed by the addition of FAAH plasmid DNA ([…]) (OriGene Cat. No. TC119221, Genbank Accession No. NM_001441.1, 0.67 ug/uL) and a further incubation of 15 minutes at room temperature. The resulting solution was added into one dish of 30-40% confluent COS-7 cells in a drop-wise manner. The COS-7 cell dish was subsequently incubated for 48 hours. The cells were then harvested.
Media was aspirated from the dishes and the cells rinsed with 10 mL PBS. The PBS was removed and 3 mL of PBS added to the dish. The dish was scraped to resuspend the cells, and the subsequent cell suspension collected into a 15 mL conical tube. The cells were pelleted by centrifugation at 1200 rpm for 5 minutes in a bench top centrifuge. PBS was removed and the cell pellet snap frozen in liquid nitrogen and stored at −80° C.
COS-7 Cells—FAAH Purification: • (1) Fractionation: Frozen cell pellets from transient transfections were thawed on ice and resuspended in 12.5 mM Hepes pH 8.0, 100 mM NaCl, 1 mM EDTA (10 mL/0.2 g cell pellet). The pellets were dounce homogenized and then sonicated to produce cell extract. The cell extract was subsequently centrifuged at 1000 g to remove cellular debris. The pellet was discarded and the supernatant centrifuged at 13,000 g for 20 minutes. The pellet contained membrane bound FAAH. The supernatant was discarded and the pellet resolubilized. • (2) Re-solubilization: The fraction of interest, (13,000 g, membrane fraction) was re-suspended in 2.3 mL re-suspension buffer (20 mM Hepes pH 7.8, 10% v/v Glycerol, 1 mM EDTA, 1% Triton X-100) and the sample incubated on ice for 1 hour and then centrifuged to remove any particulate matter. The supernatant containing solubilized human FAAH was aliquoted and snap frozen in liquid nitrogen and stored at −80° C. until use. • (3) Characterization: Protein Concentration determined by Bradford assay. • SDS gel and Western blot to confirm presence of FAAH • FAAH activity assay • Km determination—96-well assay • Linear dependence—96-well assay • Standard compound Ki determination—384-well assay
Rat FAAH biochemical assays were carried out in a 96 well flat bottom black non-treated polystyrene plates (Corning Costar Catalogue #3915). FAAH reaction buffer: 50 mM Hepes (pH 7.5), 1 mM EDTA, 0.2% Triton X-100. FAAH substrate-AMC Arachidonoyl Amide (Cayman Chemicals Company, Catalog #10005098). The reaction was read in an Envision microtiter plate reader [Excitation filter 355 nm (40 nm bandpass); Emission filter 460 nm (25 nm bandpass)]. The raw fluorescence was plotted on the y axis and the inhibitor concentration on the x axis to give a dose response inhibition curve. The data was fitted to a single site competitive inhibition equation, fixing the Km for the rat and human enzyme to 12 μM and 9 μM respectively.
The principle of this assay was the hydrolysis of AMC-Arichodonoyl, a fluorescent analogue of Anandamide, which results in the formation of Arachidonic acid and AMC. The formation of AMC results in an increase in fluorescence (see, for example, Manjunath et al., Analytical Biochemistry (2005) 343:143-151; and Wang et al., Biomolecular Screening (2006) 1-9). […]
`CC(C)(C)OC(=O)N1CC=C(B(O)O)CC1` [Example 1] showed a Ki of 100 to 1000 nM.

The compound `O=C(OCc1ccccc1)N1CC=C(B(O)O)CC1` [Example 2] displayed a Ki of 10 to 100 nM.

Consider `CC(=O)N1CC=C(B(O)O)CC1` [Example 3], for which the Ki is above 1000 nM.

Compound `O=C(c1ccc(Cl)cc1)N1CC=C(B(O)O)CC1` [Example 4] showed a Ki of 10 to 100 nM.

In the case of `Cc1c(C(=O)N2CC=C(B(O)O)CC2)sc2ccccc12` [Example 5], the Ki was 10 to 100 nM.

On to `Cc1c(CC(=O)N2CC=C(B(O)O)CC2)sc2ccccc12` [Example 6], for which the Ki is 10 to 100 nM.

`O=C(NCc1ccccc1)N1CC=C(B(O)O)CC1` [Example 7]: the Ki was in the range of 10 to 100 nM.

`CC(C)(C)OC(=O)N1CCC(B(O)O)CC1` [Example 8] came in with a Ki of 10 to 100 nM.

As for `O=C(OCc1ccccc1)N1CCC(B(O)O)CC1` [Example 9], the Ki lay within 10 to 100 nM.

Compound `O=C(CCCCc1ccccc1)N1CCC(B(O)O)CC1` [Example 10] gave a Ki of 10 to 100 nM.

`O=C(c1ccc(Cl)cc1)N1CCC(B(O)O)CC1` [Example 11] displayed a Ki of 100 to 1000 nM.

In turn, `O=C(c1cnc2ccccc2c1)N1CCC(B(O)O)CC1` [Example 12] had a Ki of 100 to 1000 nM.

`O=C(c1ccc2ccccc2n1)N1CCC(B(O)O)CC1` [Example 13] displayed an inhibition constant (Ki) of 100 to 1000 nM.

`O=C(CNCc1ccccc1)N1CCC(B(O)O)CC1` [Example 14] displayed a Ki above 1000 nM.

With `O=C([C@H]1CCCN1)N1CCC(B(O)O)CC1` [Example 15], the inhibition constant Ki was above 1000 nM.

In the case of `Cc1ccc(S(=O)(=O)N2CCC(B(O)O)CC2)cc1` [Example 16], the Ki lay in the range of 100 to 1000 nM.

With `OB(O)C1CCN(Cc2ccccc2)CC1` [Example 17], the Ki is above 1000 nM.

In turn, `Cc1c(CN2CCC(B(O)O)CC2)sc2ccccc12` [Example 18] registered a Ki of 10 to 100 nM.
